Experimental data: patent publication US4560662A, “Streptomyces antibioticus ATCC 31771 and process for obtaining same” (priority 1981, dated 1985)
Converted amounts (≈) assume the structure as drawn. Read-outs that look alike come from different tables or passages of the source.

Key:
[1] = test system: Staphylococcus aureus ATCC 6538 P; assay: Bacteriostatic power in solid medium (MIC), aerobic Gram positive; type: cell-based; settings: Staphylococcus aureus
[2] = test system: Staphylococcus aureus LRP 14; assay: as above; type: cell-based; settings: Staphylococcus aureus
[3] = test system: Streptococcus faecalis LRP 7; assay: as above; type: cell-based; settings: Enterococcus faecalis
[4] = test system: Streptococcus faecalis sub. zymogenes ATCC 12958; assay: as above; type: cell-based; settings: Enterococcus faecalis
[5] = test system: Streptococcus pneumonieae ATCC 6303; assay: as above; type: cell-based; settings: Streptococcus
[6] = test system: Streptococcus pneumonieae LRP 52; assay: as above; type: cell-based; settings: Streptococcus
[7] = test system: Streptococcus pneumonieae LRP 53; assay: as above; type: cell-based; settings: Streptococcus
[8] = test system: Streptococcus pyogenes ATCC 8668; assay: as above; type: cell-based; settings: Streptococcus pyogenes
[9] = test system: Streptococcus pyogenes LRP 197; assay: as above; type: cell-based; settings: Streptococcus pyogenes
[10] = test system: Corynebacterium diphteriae LRP 24; assay: as above; type: cell-based; settings: Corynebacterium
[11] = test system: Micrococcus luteus ATCC 9341; assay: as above; type: cell-based; settings: Micrococcus luteus
[12] = test system: Micrococcus luteus ATCC 15957; assay: as above; type: cell-based; settings: Micrococcus luteus, ATCC15957, LRP 193, Erythromicina resistant, read-out: minimum inhibiting concentration
Text: (§1) Turning now to an examination of the novel macrolide antibiotics produced according to the present invention, they are all characterized by a bacteriostatic spectrum like that of erythromycin and by the stability in acidic environment, whereby their direct administration by oral route is possible, without having recourse to esters and/or salts, showing the afore mentioned disadvantages and problems. The above is confirmed by the following Table 1, wherein the MIC values are reported, indicating the bacteriostatic power, and by the Table 2, giving the stability values in acidic environment. Without having to be construed in a limiting sense, it seems plausible that the greater stability of the macrolide. antibiotics of the present invention can be attributed to the presence in the molecule of the antibiotic of the neutral sugar oleandrose (J. Antib. (1976) XXIX (7), 728).
(§2) Bacteriostatic power in solid medium of Erythromycin A, Erythromycin B,
(§3) aerobic and anaerobic bacteria, Gram positive and Gram negative minimum
(§4) inhibiting concentrations expressed in mcg/ml.

[13] = test system: Staphylococcus aureus ATCC 14154; assay: as above; type: cell-based; settings: Staphylococcus aureus, ATCC14154, LRP 78, Erythromicina resistant, read-out: minimum inhibiting concentration
Text: as §1, §2, §3, §4

[14] = test system: Bacillus subtilis LRP 25; assay: as above; type: cell-based; settings: Bacillus subtilis
[15] = test system: Haemophilus influenzae ATCC 19418; assay: Bacteriostatic power in solid medium (MIC), aerobic Gram negative; type: cell-based; settings: Haemophilus influenzae, ATCC19418, LRP 213, read-out: minimum inhibiting concentration
Text: as §1, §2, §3, §4

[16] = test system: Pseudomonas aeruginosa LRP 9; assay: as above; type: cell-based; settings: Pseudomonas aeruginosa, LRP9, read-out: minimum inhibiting concentration
Text: as §1, §2, §3, §4

[17] = test system: Shigella sonnei LRP 5; assay: as above; type: cell-based; settings: Shigella sonnei, LRP5, read-out: minimum inhibiting concentration
Text: as §1, §2, §3, §4

[18] = test system: Neisseria Gonorrhoeae ATCC 19424; assay: as above; type: cell-based; settings: Neisseria gonorrhoeae
[19] = test system: Escherichia coli LRP 50; assay: as above; type: cell-based; settings: Escherichia coli, LRP50, read-out: minimum inhibiting concentration
[20] = test system: Klebsiella pneumoniae LRP 54; assay: as above; type: cell-based; settings: Klebsiella pneumoniae, LRP54, read-out: minimum inhibiting concentration
[21] = test system: Proteus vulgaris ATCC 6380; assay: as above; type: cell-based; settings: Proteus vulgaris, ATCC6380, read-out: minimum inhibiting concentration
[22] = test system: Salmonella typhi LRP 8; assay: as above; type: cell-based; settings: Salmonella enterica, TYPHI, read-out: minimum inhibiting concentration
[23] = test system: Acholeplasma laidlawii ATCC 23206; assay: as above; type: cell-based; settings: Acholeplasma laidlawii
[24] = test system: Mycoplasma hominis I ATCC 14097; assay: as above; type: cell-based; settings: Metamycoplasma hominis, ATCC14097, read-out: minimum inhibiting concentration
[25] = test system: Clostridium perfrigens ATCC 3624; assay: Bacteriostatic power in solid medium (MIC), anaerobic; type: cell-based; settings: Clostridium, ATCC3624, LRP 206, read-out: minimum inhibiting concentration
[26] = test system: Bacteroides fragilis ATCC 23745; assay: as above; type: cell-based; settings: Bacteroides fragilis
[27] = test system: Fusobacterium necrophorum ATCC 27852; assay: as above; type: cell-based; settings: Fusobacterium necrophorum
[28] = known; cited from earlier work
[29] = physchem; type: physicochemical; settings: acidic environment
Text: t 1/2 represents the half life time of the antibiotics as determined by
high pressure liquid phase chromatography (HPLC).

[30] = Relative solubility in water phase (extraction, TLC and HPLC control); type: physicochemical; settings: relative to P 15148, P 15149 and P 15153; alkaline aqueous phase
Text: Before each extraction the pH of the aqueous phase is brought again to 9.

[31] = ATCC6538, read-out: minimum inhibiting concentration
[32] = LRP14, read-out: minimum inhibiting concentration
[33] = LRP7, read-out: minimum inhibiting concentration
[34] = ATCC12958, read-out: minimum inhibiting concentration
[35] = ATCC6303, read-out: minimum inhibiting concentration
[36] = LRP52, read-out: minimum inhibiting concentration
[37] = LRP53, read-out: minimum inhibiting concentration
[38] = ATCC8668, read-out: minimum inhibiting concentration
[39] = LRP197, read-out: minimum inhibiting concentration
[40] = LRP24, read-out: minimum inhibiting concentration
[41] = ATCC9341, read-out: minimum inhibiting concentration
[42] = LRP25, read-out: minimum inhibiting concentration
[43] = ATCC19424, read-out: minimum inhibiting concentration
[44] = ATCC23206, read-out: minimum inhibiting concentration
[45] = ATCC23745, read-out: minimum inhibiting concentration
[46] = ATCC27852, read-out: minimum inhibiting concentration

SMILES: CO[C@H]1C[C@H](O[C@H]2[C@H](C)[C@@H](O[C@@H]3O[C@H](C)C[C@H](N(C)C)[C@H]3O)[C@@H](C)C[C@@]3(CO3)C(=O)[C@H](C)[C@@H](O)[C@@H](C)[C@@H](C)OC(=O)[C@@H]2C)O[C@@H](C)[C@@H]1O [oleandomycin, reference compound]
- MIC ([1]; ATCC6538, solid medium, LRP 39, read-out: minimum inhibiting concentration): 0.39 µg/mL (≈ 0.567 µM)
- MIC ([2]; LRP14, solid medium, LRP 14, Penycilline resistant, read-out: minimum inhibiting concentration): 0.39 µg/mL (≈ 0.567 µM)
- MIC ([3]; LRP7, solid medium, LRP 7, read-out: minimum inhibiting concentration): 1.56 µg/mL (≈ 2.27 µM)
- MIC ([4]; ATCC12958, solid medium, LRP 61, read-out: minimum inhibiting concentration): 1.56 µg/mL (≈ 2.27 µM)
- MIC ([5]; ATCC6303, solid medium, LRP 35, read-out: minimum inhibiting concentration): 0.195 µg/mL (≈ 0.283 µM)
- MIC ([6]; LRP52, solid medium, LRP 52, read-out: minimum inhibiting concentration): 0.195 µg/mL (≈ 0.283 µM)
- MIC ([7]; LRP53, solid medium, LRP 53, read-out: minimum inhibiting concentration): 0.195 µg/mL (≈ 0.283 µM)
- MIC ([8]; ATCC8668, solid medium, LRP 34, read-out: minimum inhibiting concentration): 0.195 µg/mL (≈ 0.283 µM)
- MIC ([9]; LRP197, solid medium, LRP 197, read-out: minimum inhibiting concentration): 0.195 µg/mL (≈ 0.283 µM)
- MIC ([10]; LRP24, solid medium, LRP 24, read-out: minimum inhibiting concentration): 0.097 µg/mL (≈ 0.141 µM)
- MIC ([11]; ATCC9341, solid medium, LRP 6, read-out: minimum inhibiting concentration): 0.049 µg/mL (≈ 0.0712 µM)
- MIC [12]: > 25 µg/mL
- MIC [13]: > 25 µg/mL
- MIC ([14]; LRP25, solid medium, LRP 25, read-out: minimum inhibiting concentration): 0.39 µg/mL (≈ 0.567 µM)
- MIC [15]: > 25 µg/mL
- MIC [16]: > 25 µg/mL
- MIC [17]: > 25 µg/mL
- MIC ([18]; ATCC19424, solid medium, LRP 214, read-out: minimum inhibiting concentration): 0.195 µg/mL (≈ 0.283 µM)
- MIC [19]: > 25 µg/mL
- MIC [20]: > 25 µg/mL
- MIC [21]: > 25 µg/mL
- MIC [22]: > 25 µg/mL
- MIC ([23]; ATCC23206, solid medium, LRP 204, read-out: minimum inhibiting concentration): 6.25 µg/mL (≈ 9.09 µM)
- MIC [24]: > 25 µg/mL
- MIC [25]: 3.12 µg/mL (≈ 4.54 µM)
- MIC ([26]; ATCC23745, solid medium, LRP 205, anaerobic, read-out: minimum inhibiting concentration): 0.39 µg/mL (≈ 0.567 µM)
- MIC ([27]; ATCC27852, solid medium, LRP 210, anaerobic, read-out: minimum inhibiting concentration): 6.25 µg/mL (≈ 9.09 µM)
- toxicity [28]: high toxicity

SMILES: CO[C@H]1C[C@H](O[C@H]2[C@H](C)[C@@H](O[C@@H]3O[C@H](C)C[C@H](N(C)C)[C@H]3O)[C@](C)(O)C[C@@H](C)C(=O)[C@H](C)[C@@H](O)[C@@H](C)[C@@H](CCO)OC(=O)[C@@H]2C)O[C@@H](C)[C@@H]1O [P 15150, 3-O-oleandrosyl-5-O-desosaminyl-15-hydroxyerythronolide B]
- MIC [1, 31]: 3.12 µg/mL (≈ 4.33 µM)
- MIC [2, 32]: 3.12 µg/mL (≈ 4.33 µM)
- MIC [3, 33]: 6.25 µg/mL (≈ 8.68 µM)
- MIC [4, 34]: 3.12 µg/mL (≈ 4.33 µM)
- MIC [5, 35]: 0.195 µg/mL (≈ 0.271 µM)
- MIC [6, 36]: 0.195 µg/mL (≈ 0.271 µM)
- MIC [7, 37]: 0.39 µg/mL (≈ 0.542 µM)
- MIC [8, 38]: 0.097 µg/mL (≈ 0.135 µM)
- MIC [9, 39]: 0.097 µg/mL (≈ 0.135 µM)
- MIC [10, 40]: 0.097 µg/mL (≈ 0.135 µM)
- MIC [11, 41]: 0.195 µg/mL (≈ 0.271 µM)
- MIC [12]: > 25 µg/mL
- MIC [13]: > 25 µg/mL
- MIC [14, 42]: 3.12 µg/mL (≈ 4.33 µM)
- MIC [15]: > 25 µg/mL
- MIC [16]: > 25 µg/mL
- MIC [17]: > 25 µg/mL
- MIC [18, 43]: 0.195 µg/mL (≈ 0.271 µM)
- MIC [19]: > 25 µg/mL
- MIC [20]: > 25 µg/mL
- MIC [21]: > 25 µg/mL
- MIC [22]: 25 µg/mL (≈ 34.7 µM)
- MIC [23, 44]: 6.25 µg/mL (≈ 8.68 µM)
- MIC [24]: > 25 µg/mL
- MIC [25]: 6.25 µg/mL (≈ 8.68 µM)
- MIC [26, 45]: > 25 µg/mL
- MIC [27, 46]: > 25 µg/mL
- half-life ([29]; pH 2, read-out: t 1/2): > 100 h
- half-life ([29]; pH 3, read-out: t 1/2): > 100 h
- half-life ([29]; pH 4, read-out: t 1/2): > 100 h
- solubility in water phase [30]: more soluble than the others in water phase

SMILES: CC[C@H]1OC(=O)[C@H](C)[C@@H](O[C@H]2C[C@H](OC)[C@@H](O)[C@H](C)O2)[C@H](C)[C@@H](O[C@@H]2O[C@H](C)C[C@H](N(C)C)[C@H]2O)[C@](C)(O)C[C@](C)(O)C(=O)[C@H](C)[C@@H](O)[C@H]1C [P 15148, 3-O-oleandrosyl-5-O-desosaminyl-(8S)-8-hydroxyerythronolide B]
- MIC [1, 31]: 1.56 µg/mL (≈ 2.17 µM)
- MIC [2, 32]: 1.56 µg/mL (≈ 2.17 µM)
- MIC [3, 33]: 0.78 µg/mL (≈ 1.08 µM)
- MIC [4, 34]: 0.78 µg/mL (≈ 1.08 µM)
- MIC [5, 35]: 0.195 µg/mL (≈ 0.271 µM)
- MIC [6, 36]: 0.195 µg/mL (≈ 0.271 µM)
- MIC [7, 37]: 0.097 µg/mL (≈ 0.135 µM)
- MIC [8, 38]: 0.195 µg/mL (≈ 0.271 µM)
- MIC [9, 39]: 0.195 µg/mL (≈ 0.271 µM)
- MIC [10, 40]: 0.097 µg/mL (≈ 0.135 µM)
- MIC [11, 41]: 0.049 µg/mL (≈ 0.0681 µM)
- MIC [12]: > 25 µg/mL
- MIC [13]: > 25 µg/mL
- MIC [14, 42]: 0.78 µg/mL (≈ 1.08 µM)
- MIC [15]: > 25 µg/mL
- MIC [16]: > 25 µg/mL
- MIC [17]: > 25 µg/mL
- MIC [18, 43]: 1.56 µg/mL (≈ 2.17 µM)
- MIC [19]: > 25 µg/mL
- MIC [20]: > 25 µg/mL
- MIC [21]: > 25 µg/mL
- MIC [22]: 25 µg/mL (≈ 34.7 µM)
- MIC [23, 44]: 6.25 µg/mL (≈ 8.68 µM)
- MIC [24]: > 25 µg/mL
- MIC [25]: 25 µg/mL (≈ 34.7 µM)
- MIC [26, 45]: 6.25 µg/mL (≈ 8.68 µM)
- MIC [27, 46]: > 25 µg/mL
- half-life ([29]; pH 2): 27 h
- half-life ([29]; pH 3, read-out: t 1/2): > 100 h
- half-life ([29]; pH 4, read-out: t 1/2): > 100 h
